According to paper PMC10979849 (bioRxiv, 2024):

Target: T1, wild-type (WT) Octβ2R (Drosophila melanogaster, UniProt Q4LBB9)
T1 sequence (Q4LBB9 1-536): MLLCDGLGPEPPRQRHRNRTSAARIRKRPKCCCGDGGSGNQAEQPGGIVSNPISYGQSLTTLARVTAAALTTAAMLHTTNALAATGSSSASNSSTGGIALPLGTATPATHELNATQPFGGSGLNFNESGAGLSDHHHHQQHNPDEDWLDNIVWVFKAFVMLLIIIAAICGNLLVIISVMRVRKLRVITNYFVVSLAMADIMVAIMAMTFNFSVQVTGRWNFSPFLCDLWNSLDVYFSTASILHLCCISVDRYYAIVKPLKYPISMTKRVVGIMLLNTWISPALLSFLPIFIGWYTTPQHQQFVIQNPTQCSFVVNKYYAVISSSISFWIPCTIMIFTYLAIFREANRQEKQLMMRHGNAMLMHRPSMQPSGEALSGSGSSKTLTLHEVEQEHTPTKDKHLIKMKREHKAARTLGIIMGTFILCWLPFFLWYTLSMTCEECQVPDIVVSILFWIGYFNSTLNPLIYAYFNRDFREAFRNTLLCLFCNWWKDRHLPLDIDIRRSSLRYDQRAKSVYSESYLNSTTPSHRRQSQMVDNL
Assay: Tango β-arrestin assay
Format: cell-based
Conditions: agonist; OA 1 nM to 100 μM, ~16 h (Tango)

With `NC[C@H](O)c1ccc(O)cc1` [Octopamine] as the compound, how does the “Tango β-arrestin assay (HTLA cells); RFlamp cAMP assay (HEK293T)” value read?
The value was “negligible β-arrestin-dependent signaling compared to cells expressing WT Octβ2R, even at high concentrations of OA”.
